Source: patent publication US20090186915A1, “Compositions and methods for treatment of glioblastoma, gliosarcoma, NSCLC, and head and neck cancer” (Unibioscreen S. A., priority 2006, published 2009)
Values joined by “and” are separate entries in the source; they are usually repeats but may differ in a detail not shown here. Identical values can stand only once. Like-named read-outs stand apart in the source and are kept apart here.

How the values were obtained:
PC-3 = assay: Senescence-associated β-galactosidase staining, PC-3; type: cell-based, human; details: 20 nM Adriamycin, 72 hours
Description: After the indicated treatments, cells were washed in PBS, fixed for 3 to 5 minutes (at room temperature) in 2% formaldehyde/0.2% glutaraldehyde, washed and incubated at 37° C. (in the absence of CO2) with fresh senescence-associated β-Gal (SA-β-Gal) staining solution: 1 mg/ml of 5-bromo-4-chloro-3-indolyl […] (X-Gal; Sigma). Staining was evident within 2 to 4 hours and maximal after 12 to 16 hours. To detect lysosomal β-Gal, the citric acid/sodium phosphate used was pH 4.0. As described in the study of Dimri et al. [Proc Natl Acad Sci USA. 1995; 92:9363-9367.], after fixing and staining with X-Gal, the number of cells positive for the SA-β-Gal activity (intense blue staining) was then counted independently by two different individuals (on 400 cells/plate). Representative photographs (original magnifications, ×20) of stained cells from different experimental treatments were taken. As a positive control for SA-β-Gal expression, Adriamycin-treated cells were used.
Human PC-3 and DU-145 prostate cancer cells cultured in 0 or 10 μM UNBS5162 or 20 nM Adriamycin for 72 hours were evaluated by SA-β-Gal staining. The data clearly indicate that 10 μM [but not 1 μM or 5×1 μM] […] TMZ, as an inducer of autophagy but not of senescence, was used as a negative control.

A549 = assay: MTT colorimetric assay, A549 cells; type: cell-based; details: Homo sapiens, 72 h, 3 days of culturing, mean of six determinations, read-out: IC50 (μM) In Vitro Growth Inhibition
Description: (§1) The overall growth of human cancer cell lines was determined by means of the calorimetric MTT (3-[4,5-dimethylthiazol-2-yl]-diphenyl tetrazolium bromide; Sigma) assay, as detailed previously.

LoVo = assay: MTT colorimetric assay, LoVo cells; type: cell-based; details: Homo sapiens, 72 h, 3 days of culturing, mean of six determinations, read-out: IC50 (μM) In Vitro Growth Inhibition
Description: as §1

[1] = system: nine human cancer cell lines; assay: MTT colorimetric assay, mean of nine cell lines; type: cell-based; details: mean over nine human cancer cell lines, read-out: mean antiproliferative activity IC50
Description: as §1
UNBS3157 and UNBS5162 display weak antiproliferative activity in vitro.

U-373MG = assay: MTT overall cell growth, U-373MG cells; type: cell-based; details: Homo sapiens, 72 h; U373-MG; 3 days of culturing; mean of six determinations; read-out: IC50 (μM) In Vitro Growth Inhibition
Description: (§2) Tests were performed in order to rapidly, i.e. within 5 days, measure the effect of the compound of example 2 on the overall cell growth. The test measures the number of metabolically active living cells that are able to transform the yellow product 3-(4,5-dimethylthiazol-2-yl)-2,5-diphenyl tetrazolium bromide (herein referred as MTT) into the blue product formazan dye by mitochondrial reduction. The amount of formazan obtained at the end of the experiment, measured by means of a spectrophotometer, is directly proportional to the number of living cells. Optical density determination thus enables a quantitative measurement of the effect of the investigated compounds as compared to the control condition (untreated cells) and/or to other reference compounds.
(§3) Six human cancer cell lines described in table 1 were used in the following MTT tests. These cell lines cover six histological cancer types, being prostate, glioma, pancreas, colon, lung and breast cancers. Cells were allowed to grow in 96 well micro-wells with a flat bottom with an amount of 100 μl of cell suspension per well with 1,000 to 4,000 cells/well depending on the cell type used. Each cell line was seeded in a well known MEM 10% serum culture medium. […]
(§4) After 72 hours of incubation at 37° C. with (experimental conditions) or without (control condition) the compound to be tested, the medium was replaced by 100 μl MTT dissolved in RPMI (1640 without phenol red) at a concentration of 1 mg/ml. […] The micro-wells were shaken for 5 minutes and read on a spectrophotometer at wavelengths of 570 nm (maximum formazan absorbance) and 630 nm (back-ground noise).
(§5) For each experimental condition, the mean optical density was calculated, as well as the percentage of remaining living cells in comparison with the control.
as §1

[2] = system: human DU-145 orthotopic xenografts; assay: Orthotopic DU-145 prostate cancer xenograft, survival; type: in vivo, nu/nu mice; details: DU-145 orthotopic model
Description: (§6) Orthotopic xenografts were obtained by injecting 2.5×10^6 human PC-3 or DU-145 cells into the prostate of 6-week-old male nu/nu mice (n=9 animals per treatment group). All grafts were performed under anesthesia [saline/Rompun (Bayer, Leverkusen, Germany)/Imalgene (Merial, Lyons, France); 5:1:1 by volume]. The end point in these orthotopic experiments was the survival period of the tumor-bearing mice after the administration of UNBS3157, UNBS5162, or reference anticancer agents (taxol, mitoxantrone, and amonafide). However, for ethical reasons, animals were killed when 20% of body weight had been lost compared to that determined at the time of tumor grafting. All animals were weighed three times a week. […] In the case of UNBS5162 experiments in the PC-3 model, after the sacrifice of animals, tumors were removed from both drug-treated [10 mg/kg, intravenous (i.v.)] and vehicle-treated mice, fixed in buffered formalin, embedded in paraffin, and 5-μm-thick sections taken. These histologic slides were then stained with hematoxylin and eosin for blood vessel counts.

HCT-15 = assay: MTT colorimetric assay, HCT-15 cells; type: cell-based; details: Homo sapiens, 72 h, 3 days of culturing, mean of six determinations, read-out: IC50 (μM) In Vitro Growth Inhibition
Description: as §1

BxPC3 = assay: MTT overall cell growth, BxPC3 cells; type: cell-based; details: Homo sapiens, BXPC-3, 72 h; Bx-PC-3; 3 days of culturing; mean of six determinations; read-out: IC50 (μM) In Vitro Growth Inhibition
Description: as §2, §3, §4, §5, §1

DU-145 = assay: MTT colorimetric assay, DU-145 cells; type: cell-based; details: Homo sapiens, 72 h, 3 days of culturing, mean of six determinations, read-out: IC50 (μM) In Vitro Growth Inhibition
Description: as §1

MCF-7 = assay: MTT colorimetric assay, MCF-7 cells; type: cell-based; details: Homo sapiens, MCF7, 72 h, 3 days of culturing, mean of six determinations, read-out: IC50 (μM) In Vitro Growth Inhibition
Description: as §1

PC3 = assay: MTT overall cell growth, PC3 cells; type: cell-based; details: Homo sapiens, 72 h; PC-3; 3 days of culturing; mean of six determinations; read-out: IC50 (μM) In Vitro Growth Inhibition
Description: as §2, with “compounds. […]” for “compounds.”
as §4
For each experimental condition, the mean optical density was calculated, as well as the percentage of remaining living cells in comparison with the control. […]

[3] = system: human PC-3 orthotopic xenografts
Description: as §6

P-glycoprotein = assay: P-gp ATPase activity (P-gp Drug interaction Assay Kit); type: biochemical
Description: In order to test drug interaction with P-glucoprotein (herein-after referred as P-gp) we used an assay based on the study of modulation of ATPase activity from enriched P-gp membrane vesicle preparation (the following kit has been used: P-gp Drug interaction Assay Kit commercially available from SPI BIO France). P-gp ATPase activity was measured by a spectrophotometric method based on monitoring of ADP formation in the vesicle suspension medium. The basal ATPase activity was defined as the activity determined in the absence of any added drug. […]

Hs683 = assay: MTT colorimetric assay, Hs683 cells; type: cell-based; details: Homo sapiens, Hs 683, 72 h, 3 days of culturing, mean of six determinations, read-out: IC50 (μM) In Vitro Growth Inhibition
Description: as §1

[4] = In vitro stability of UNBS3157 in saline/DMSO; type: physicochemical; details: physiological saline/DMSO (95:5 v/v), 37° C.
[5] = system: platelets, red and white blood cells; assay: Compound-induced hematotoxicity and tolerance in mice; type: in vivo; details: five times a week for three weeks
Description: We have determined the compound-induced potential hematotoxicity of the compound produced according to example 2 or example 7 on platelets, red and white blood cells in comparison of the effect of amonafide on platelets, red and white blood cells. The effect of amonafide was evaluated at 10 mg/kg and 20 mg/kg, by the intra-peritoneal administration to mice. The administration schedule was five times a week for three consecutive weeks. The effect of the compound produced according to example 2 or example 7 was evaluated at 20 mg/kg, by the intra-venous administration to mice. The administration schedule was three times a week (on Mondays, Wednesdays and Fridays) for five consecutive weeks. The animals were sacrificed 3 days after the last injection. There were 10 mice per group. FIG. 1 illustrates results of this assay for compound-induced hematotoxicity on platelets.

[6] = system: human A549 NSCLC orthotopic; details: Taxol i.v. 20 mg/kg (1i × 3w)
Description: The purpose of the present study was to evaluate the in vivo efficacy of UNBS5162 on human A549 NSCLC orthotopic nude mice model. The endpoint in this experiment was the survival period of the tumor-bearing mice following treatment, as indicated.
The experiment comprised 6 groups of II mice, one group with mice receiving the vehicle only (Ct group) and 5 groups receiving the treatments as indicated in the Table 13. UNBS5162 was dosed i.v. at 10 mg/kg (in lactic acid vehicle). Taxol (Paclitaxel 6 mg/mL, Bristol-Myers Squibb) was dosed i.v. at 20 mg/kg.

**Q.** For COc1cccc2c1C(=O)c1c(O)c3c(c(O)c1C2=O)C[C@@](O)(C(=O)CO)C[C@@H]3O[C@H]1C[C@H](N)[C@H](O)[C@H](C)O1 [Adriamycin, doxorubicin, reference compound], which SA-β-Gal expression (PC-3) is on record?
**A.** Its SA-β-Gal expression is “Limited SA-β-Gal expression”.

**Q.** What does the source list for CN(C)CCN1C(=O)c2cccc3cc(NC(=O)NC(=O)C(Cl)(Cl)Cl)cc(c23)C1=O [UNBS3157, 2,2,2-trichloro-N-[({2-[2-(dimethylamino)ethyl]-1,3-dioxo-2,3-dihydro-1H-benzo[de]isoquinolin-5-yl}amino)carbonyl]acetamide]?
**A.** IC50 (A549): 8.7 µM; IC50 (LoVo): 26.4 µM; IC50 [1]: 19.8 µM; IC50 (U-373MG): 3.9 µM; % T/C ([2]; 20 mg/kg i.v.): 143%; % T/C ([2]; 40 mg/kg orally): 164%; IC50 (HCT-15): 29.3 µM; IC50 (BxPC3): 17.2 µM; IC50 (DU-145): 23 µM; IC50 (MCF-7): 44.3 µM; IC50 (PC3): 15.1 µM; % T/C ([3]; PC-3 orthotopic model, 40 mg/kg p.o.): 100%; % T/C ([3]; PC-3 orthotopic model, 160 mg/kg orally): 151%; modulation of Pgp ATPase activity (P-glycoprotein; 100 μM (data not shown)): do not affect Pgp ATPase activity; IC50 (Hs683): 9.9 µM; production of amonafide on hydrolysis ([4]; 22-hour incubation): without production of amonafide; hydrolyzed to UNBS5162 ([4]; in 270 minutes, 10^−4 M): 90%

**Q.** What does the source list for CN(C)CCN1C(=O)c2cccc3cc(N)cc(c23)C1=O [amonafide]?
**A.** activity (survival) ([2]; 20 mg/kg i.v. and lower doses): inactive; % T/C ([2]; 40 mg/kg orally): 138%; tolerance of chronic administrations ([5]; 10 mg/kg intra-peritoneal): tolerated 15 chronic administrations; tolerance of chronic administrations ([5]; 20 mg/kg intra-peritoneal): all animals died before receiving the complete set of 15 administrations; % T/C ([3]; PC-3 orthotopic model, 40 mg/kg p.o., 40 mg/kg): 103% and 107%; modulation of basal P-gp ATPase activity (P-glycoprotein; 50 μM): significantly alter the ATPase activity

**Q.** For O=C1c2c(O)ccc(O)c2C(=O)c2c(NCCNCCO)ccc(NCCNCCO)c21 [mitoxantrone, reference compound], which “therapeutic benefit (survival)” value ([3]; PC-3 orthotopic model, mitoxantrone i.v.) is on record?
**A.** The value was “failed to contribute any therapeutic benefit”.

**Q.** And the toxicity ([3]; mouse, in vivo, iv, 2.5 mg/kg)?
**A.** The toxicity was “highly toxic”.

**Q.** What does the source list for CC(=O)O[C@H]1C(=O)[C@@]2(C)[C@H]([C@H](OC(=O)c3ccccc3)[C@]3(O)C[C@H](OC(=O)[C@H](O)[C@@H](NC(=O)c4ccccc4)c4ccccc4)C(C)=C1C3(C)C)[C@]1(OC(C)=O)CO[C@@H]1C[C@@H]2O [taxol, reference compound]?
**A.** % T/C ([2]; 20 mg/kg i.v.): 146%; T/C (%) [6]: 128%
